Reference: the supplement of paper PMC10307832

How the values were obtained:
Assay in all cases: relative viability (nuclei count vs DMSO), 5 days (fraction); higher = more cells survive
NCI-H2405 = tested on: NCI-H2405
Outline: (§1)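 Cells from lung cancer lines were seeded into 1536-well plates and, one day later, dosed by pin tool. Treatments were either a single drug or a fixed dose of an anchor drug with five library-drug doses (not always all listed) in √10 steps. After 5 days, nuclei were stained in a one-step fixation (final 0.05% Triton X-100, 1% formaldehyde, 1 ug/ml Hoechst) and counted on 4× images, and relative viability is the treated-to-vehicle nuclei ratio, as the median of duplicate plates.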

NCI-H1437 = tested on: NCI-H1437
Outline: as §1

ABC-1 = tested on: ABC-1
Outline: as §1

SK-MES-1 = tested on: SK-MES-1
Outline: as §1

PC-3 [JPC-3] = tested on: PC-3 [JPC-3]
Outline: as §1

EKVX = tested on: EKVX
Outline: as §1

COR-L23 = tested on: COR-L23
Outline: as §1

NCI-H520 = tested on: NCI-H520
Outline: as §1

NCI-H1651 = tested on: NCI-H1651
Outline: as §1

CAL-12T = tested on: CAL-12T
Outline: as §1

SW 1573 = tested on: SW 1573
Outline: as §1

NCI-H2228 = tested on: NCI-H2228
Outline: as §1

NCI-H322M = tested on: NCI-H322M
Outline: as §1

NCI-H661 = tested on: NCI-H661
Outline: as §1

RERF-LC-KJ = tested on: RERF-LC-KJ
Outline: as §1

NCI-H1734 = tested on: NCI-H1734
Outline: as §1

H3255 = tested on: H3255
Outline: as §1

NCI-H1563 = tested on: NCI-H1563
Outline: as §1

LK-2 = tested on: LK-2
Outline: as §1

HCC-827 = tested on: HCC-827
Outline: as §1

HCC-15 = tested on: HCC-15
Outline: as §1

NCI-H1355 = tested on: NCI-H1355
Outline: as §1

PC-14 = tested on: PC-14
Outline: as §1

NCI-H1650 = tested on: NCI-H1650
Outline: as §1

## COc1cc(N2CCC(C(N)=O)CC2)ccc1Nc1nc(N)c(Cl)c(Nc2ccccc2S(=O)(=O)C(C)C)n1 [HG-5-88-01] + CS(=O)(=O)N1CCN(Cc2cc3nc(-c4cccc5[nH]ncc45)nc(N4CCOCC4)c3s2)CC1 [Pictilisib] (partner 1 µM)
NCI-H2405; first compound 0.04 µM
  relative viability: 0.286
NCI-H2405; first compound 0.1265 µM
  relative viability: 0.465
NCI-H2405; first compound 0.4 µM
  relative viability: 0.363
NCI-H2405; first compound 1.265 µM
  relative viability: 0.329
NCI-H2405; first compound 4 µM
  relative viability: 0.451
NCI-H1437; first compound 0.04 µM
  relative viability: 0.519
NCI-H1437; first compound 0.1265 µM
  relative viability: 0.431
NCI-H1437; first compound 0.4 µM
  relative viability: 0.436
NCI-H1437; first compound 1.265 µM
  relative viability: 0.416
NCI-H1437; first compound 4 µM
  relative viability: 0.264
ABC-1; first compound 0.04 µM
  relative viability: 0.614
ABC-1; first compound 0.1265 µM
  relative viability: 0.829
ABC-1; first compound 0.4 µM
  relative viability: 0.679
ABC-1; first compound 1.265 µM
  relative viability: 0.681
ABC-1; first compound 4 µM
  relative viability: 0.522
SK-MES-1; first compound 0.04 µM
  relative viability: 0.37
SK-MES-1; first compound 0.1265 µM
  relative viability: 0.373
SK-MES-1; first compound 0.4 µM
  relative viability: 0.354
SK-MES-1; first compound 1.265 µM
  relative viability: 0.282
SK-MES-1; first compound 4 µM
  relative viability: 0.299
PC-3 [JPC-3]; first compound 0.04 µM
  relative viability: 0.69
PC-3 [JPC-3]; first compound 0.1265 µM
  relative viability: 0.702
PC-3 [JPC-3]; first compound 0.4 µM
  relative viability: 0.636
PC-3 [JPC-3]; first compound 1.265 µM
  relative viability: 0.494
PC-3 [JPC-3]; first compound 4 µM
  relative viability: 0.266
EKVX; first compound 0.04 µM
  relative viability: 0.444
EKVX; first compound 0.1265 µM
  relative viability: 0.426
EKVX; first compound 0.4 µM
  relative viability: 0.372
EKVX; first compound 4 µM
  relative viability: 0.355
COR-L23; first compound 0.04 µM
  relative viability: 0.629
COR-L23; first compound 0.1265 µM
  relative viability: 0.725
COR-L23; first compound 0.4 µM
  relative viability: 0.608
COR-L23; first compound 1.265 µM
  relative viability: 0.371
COR-L23; first compound 4 µM
  relative viability: 0.353
NCI-H520; first compound 0.04 µM
  relative viability: 0.366
NCI-H520; first compound 0.1265 µM
  relative viability: 0.273
NCI-H520; first compound 0.4 µM
  relative viability: 0.235
NCI-H520; first compound 1.265 µM
  relative viability: 0.299
NCI-H520; first compound 4 µM
  relative viability: 0.36
NCI-H1651; first compound 0.04 µM
  relative viability: 0.51
NCI-H1651; first compound 0.1265 µM
  relative viability: 0.609
NCI-H1651; first compound 0.4 µM
  relative viability: 0.559
NCI-H1651; first compound 1.265 µM
  relative viability: 0.646
NCI-H1651; first compound 4 µM
  relative viability: 0.646
CAL-12T; first compound 0.04 µM
  relative viability: 0.321
CAL-12T; first compound 0.1265 µM
  relative viability: 0.354
CAL-12T; first compound 0.4 µM
  relative viability: 0.418
CAL-12T; first compound 1.265 µM
  relative viability: 0.296
CAL-12T; first compound 4 µM
  relative viability: 0.227
SW 1573; first compound 0.04 µM
  relative viability: 0.422
SW 1573; first compound 0.1265 µM
  relative viability: 0.563
SW 1573; first compound 0.4 µM
  relative viability: 0.445
SW 1573; first compound 1.265 µM
  relative viability: 0.392
SW 1573; first compound 4 µM
  relative viability: 0.489
NCI-H2228; first compound 0.04 µM
  relative viability: 0.215
NCI-H2228; first compound 0.1265 µM
  relative viability: 0.177
NCI-H2228; first compound 0.4 µM
  relative viability: 0.248
NCI-H2228; first compound 1.265 µM
  relative viability: 0.144
NCI-H2228; first compound 4 µM
  relative viability: 0.157
NCI-H322M; first compound 0.04 µM
  relative viability: 0.461
NCI-H322M; first compound 0.1265 µM
  relative viability: 0.471
NCI-H322M; first compound 0.4 µM
  relative viability: 0.512
NCI-H322M; first compound 1.265 µM
  relative viability: 0.441
NCI-H322M; first compound 4 µM
  relative viability: 0.449
NCI-H661; first compound 0.04 µM
  relative viability: 0.43
NCI-H661; first compound 0.1265 µM
  relative viability: 0.477
NCI-H661; first compound 0.4 µM
  relative viability: 0.469
NCI-H661; first compound 4 µM
  relative viability: 0.418
RERF-LC-KJ; first compound 0.04 µM
  relative viability: 0.588
RERF-LC-KJ; first compound 0.1265 µM
  relative viability: 0.714
RERF-LC-KJ; first compound 0.4 µM
  relative viability: 0.498
RERF-LC-KJ; first compound 1.265 µM
  relative viability: 0.481
RERF-LC-KJ; first compound 4 µM
  relative viability: 0.412
NCI-H1734; first compound 0.04 µM
  relative viability: 0.405
NCI-H1734; first compound 0.1265 µM
  relative viability: 0.423
NCI-H1734; first compound 0.4 µM
  relative viability: 0.411
NCI-H1734; first compound 1.265 µM
  relative viability: 0.358
NCI-H1734; first compound 4 µM
  relative viability: 0.476
H3255; first compound 0.04 µM
  relative viability: 0.479
H3255; first compound 0.1265 µM
  relative viability: 0.484
H3255; first compound 0.4 µM
  relative viability: 0.449
H3255; first compound 4 µM
  relative viability: 0.317
NCI-H1563; first compound 0.04 µM
  relative viability: 0.66
NCI-H1563; first compound 0.1265 µM
  relative viability: 0.671
NCI-H1563; first compound 0.4 µM
  relative viability: 0.638
NCI-H1563; first compound 1.265 µM
  relative viability: 0.651
NCI-H1563; first compound 4 µM
  relative viability: 0.634
LK-2; first compound 0.04 µM
  relative viability: 0.632
LK-2; first compound 0.1265 µM
  relative viability: 0.522
LK-2; first compound 0.4 µM
  relative viability: 0.546
LK-2; first compound 1.265 µM
  relative viability: 0.386
LK-2; first compound 4 µM
  relative viability: 0.614
HCC-827; first compound 0.04 µM
  relative viability: 1.02
HCC-827; first compound 0.1265 µM
  relative viability: 0.931
HCC-827; first compound 0.4 µM
  relative viability: 0.924
HCC-827; first compound 1.265 µM
  relative viability: 0.552
HCC-827; first compound 4 µM
  relative viability: 0.56
HCC-15; first compound 0.04 µM
  relative viability: 0.844
HCC-15; first compound 0.1265 µM
  relative viability: 0.831
HCC-15; first compound 0.4 µM
  relative viability: 0.741
HCC-15; first compound 1.265 µM
  relative viability: 0.798
HCC-15; first compound 4 µM
  relative viability: 0.515
NCI-H1355; first compound 0.04 µM
  relative viability: 0.253
NCI-H1355; first compound 0.1265 µM
  relative viability: 0.462
NCI-H1355; first compound 0.4 µM
  relative viability: 0.412
NCI-H1355; first compound 1.265 µM
  relative viability: 0.414
NCI-H1355; first compound 4 µM
  relative viability: 0.299
PC-14; first compound 0.04 µM
  relative viability: 0.79
PC-14; first compound 0.1265 µM
  relative viability: 0.862
PC-14; first compound 0.4 µM
  relative viability: 0.658
PC-14; first compound 1.265 µM
  relative viability: 0.168
PC-14; first compound 4 µM
  relative viability: 0.108
NCI-H1650; first compound 0.04 µM
  relative viability: 0.583
NCI-H1650; first compound 0.1265 µM
  relative viability: 0.551
NCI-H1650; first compound 0.4 µM
  relative viability: 0.565
NCI-H1650; first compound 1.265 µM
  relative viability: 0.519
NCI-H1650; first compound 4 µM
  relative viability: 0.355
